In data set [1] the test system is mouse embryonic fibroblasts (MEFs). Kind of data set: MTT tetrazolium reduction viability assay, MEFs. It is filed as cell-based. To be noted: 24 h; for viability (formazan absorbance at 570 nm, MTT): 1 nM to 1 mM, vs 0.1% DMSO vehicle. The procedure:
(§1) C2C12 mouse myoblasts and mouse embryonic fibroblasts (MEFs) were cultured in DMEM supplemented with 10% (v/v) FBS, 4500 mg/L glucose, 4 mM L-glutamine, 1 mM sodium pyruvate, 2% (v/v) MEM nonessential amino acid solution, and penicillin (50 I.U./mL)/streptomycin (50 μg/mL) solution (complete media). Cells were cultured in a humidified 5% CO2 atmosphere within a Thermo Forma Series II water-jacketed CO2 incubator maintained at 37° C. Cells were transferred to fresh 96- or 6-well plates (2,000 cells/well & 60,000 cells/well, respectively) in the evening prior to commencing tocopherol treatments.
(§2) Each tocopherol was dissolved in sterile 100% DMSO to yield a 1 M stock solution. Less concentrated stock solutions were subsequently prepared using ten-fold serial dilutions. All tocopherol solutions were stored at −20° C. To treat cultured cells, media was replaced with complete media containing freshly-added tocopherol; the final amount of vehicle (DMSO) for all concentrations tested was 0.1% (v/v).
(§3) Media was discarded, wells were washed once with phenol red-free complete culture media, and 100 μL/well phenol red-free complete culture media containing 0.45 mg/mL MTT was added. Two hours later, solubilization solution [40% (v/v) dimethylformamide, 2% (v/v) glacial acetic acid, 16% (w/v) sodium dodecyl sulfate, pH 4.7] was added (100 μL/well) and well contents were gently mixed by re-suspension to dissolve the formazan precipitate. Plates were incubated at room temperature in darkness for 2 h before recording absorbance at 570 nm using a Bio-Tek PowerWave Microplate UV-Vis spectrophotometer (Winooski, Vt., USA). For each plate, background signal averaged from cell-free wells containing vehicle treatments was subtracted
as §3, with “subtracted.” for “subtracted”

The subject of the next data set is C2C12 mouse myoblasts. Kind of data set: MTT tetrazolium reduction viability assay, C2C12 myoblasts. The class given is cell-based. To be noted: 24 h; for viability (formazan absorbance at 570 nm, MTT): 1 nM to 1 mM, vs 0.1% DMSO vehicle. Here is the method: as §1, §2, §3
as §3, with “subtracted.” for “subtracted”

For data set [2], the target named is T1, α-TTP (α-tocopherol transfer protein) (Homo sapiens, UniProt P49638).
T1 sequence (P49638 1-278): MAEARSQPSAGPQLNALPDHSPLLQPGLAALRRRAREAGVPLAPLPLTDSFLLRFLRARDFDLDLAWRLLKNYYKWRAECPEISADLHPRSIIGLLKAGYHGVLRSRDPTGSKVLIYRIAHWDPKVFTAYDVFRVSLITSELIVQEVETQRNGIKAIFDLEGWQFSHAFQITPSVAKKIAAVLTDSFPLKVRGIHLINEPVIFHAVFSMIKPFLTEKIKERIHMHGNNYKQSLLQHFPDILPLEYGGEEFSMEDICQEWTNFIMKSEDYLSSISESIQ
Briefly: Competitive displacement of TBtoc from pre-incubated complex with α-TTP. The class given is binding. To be noted: 0.4 μM TBtoc pre-incubated with 0.4 μM α-TTP; competitor in dioxane; TKE buffer. Here is the method: When α-TTP is pre-incubated with TBtoc, competitive assays are possible by the incremental addition of a specific ligand such as natural α-tocopherol. Cholesterol served as a negative control (FIG. 5). About 57% of the bound fluorescence could be competed of α-TTP by α-tocopherol, whereas only about 8% was lost with cholesterol.

The structures appear in SMILES notation.

Turning to `Cc1c(C)c2c(c(C)c1[19F])CC[C@@](C)(CCC[C@H](C)CCC[C@H](C)CCCC(C)C)O2` [F-Toc], the “viability (formazan absorbance at 570 nm, MTT)” value (shortened to “viability”) (in data set [1]; in the data set with C2C12 mouse myoblasts) was “no sensitivity” throughout. In addition, the “cytotoxic concentration (no cytotoxicity up to stated concentration)” value (in data set [1] (MTT); with C2C12 mouse myoblasts (MTT)) was > 1 mM in each case.

As to `Cc1c(C)c2c(c(C)c1I)CC[C@@](C)(CCCC(C)CCCC(C)CCCC(C)C)O2` (stereo partly drawn) [I-Toc, (2R)-6-iodo-2,5,7,8-tetramethyl-2-(4.8.12-trimethyl-tridecyl)-chroman], the “viability” value (in data set [1]; in the data set with C2C12 mouse myoblasts) was “no negative sensitivity” throughout.

Regarding `CC(C)CCC[C@@H](C)[C@H]1CC[C@H]2[C@@H]3CC=C4C[C@@H](O)CC[C@]4(C)[C@H]3CC[C@]12C` [cholesterol], in data set [2], the “bound fluorescence competed off α-TTP” value is recorded as “about 8%”.

Consider `Cc1c(C)c2c(c(C)c1O)CC[C@@](C)(CCC[C@H](C)CCC[C@H](C)CCCC(C)C)O2` [α-tocopherol, reference compound], for which, in data set [2], the “bound fluorescence competed off α-TTP” value is reported as “About 57%”. The “viability” value (in data set [1]; in the data set with C2C12 mouse myoblasts) was “no sensitivity” each time.

These data come from patent US20210230134A1, “VITAMIN E DERIVATIVES AND THEIR USE AS MULTI-SCALE IMAGING AGENTS” (EXACT DELIVERY INC., priority 2018, published 2021).
